In brackets after ≈: the same amount, converted by molar mass. Blank lines part the entries; values can stand above or below the molecule they belong to.
Assays:
Assay type in all cases: functional
Staphylococcus aureus = assay: Antibacterial activity against Staphylococcus aureus SG511 after 24 hrs by broth microdilution method; settings: SG511, 24 h
Streptococcus iniae = assay: Antibacterial activity against Streptococcus iniae after 24 hrs by broth microdilution method
Vibrio ichthyoenteri = assay: Antibacterial activity against Vibrio ichthyoenteri after 24 hrs by broth microdilution method

Compound: CCCCCCCCC(=O)c1cccc2c1C=C(CCCCCCC)[C@]1(OCc3c(O)cccc31)O2
MIC (Staphylococcus aureus): > 40 mg/L
MIC (Streptococcus iniae): > 40 mg/L
MIC (Vibrio ichthyoenteri): > 40 mg/L

Compound: CN(C)[C@@H]1C(O)=C(C(N)=O)C(=O)[C@@]2(O)C(=O)C3=C(O)c4c(O)cccc4[C@@](C)(O)[C@H]3[C@H](O)[C@@H]12
MIC (Streptococcus iniae): 2.5 mg/L (≈ 5.43 µM)
MIC (Vibrio ichthyoenteri): 0.16 mg/L (≈ 0.347 µM)

Compound: CCCCCCCCC(=O)c1cccc2c1C=C(CCCCCCC)C1(OCc3c(O)cccc31)O2 (racemic)
MIC (Staphylococcus aureus): > 40 mg/L
MIC (Streptococcus iniae): > 40 mg/L
MIC (Vibrio ichthyoenteri): 40 mg/L (≈ 81.5 µM)

Results, then the molecule that gave them:

MIC (Staphylococcus aureus): > 40 mg/L
MIC (Streptococcus iniae): > 40 mg/L
MIC (Vibrio ichthyoenteri): > 40 mg/L
Compound: CCCCCCCCC(=O)c1cccc2c1C=C(CCCCCCC)[C@@]1(OCc3c(O)cccc31)O2

MIC (Staphylococcus aureus): 0.16 mg/L (≈ 0.36 µM)
Compound: CN(C)[C@@H]1C(O)=C(C(N)=O)C(=O)[C@@]2(O)C(O)=C3C(=O)c4c(O)cccc4[C@@](C)(O)[C@H]3C[C@@H]12 [TETRACYCLINE]

— ChEMBL document CHEMBL3739288, “Dimeric Octaketide Spiroketals from the Jellyfish-Derived Fungus Paecilomyces variotii J08NF-1” (2015)
